According to ChEMBL document CHEMBL3351747, “Structure-based design of β1i or β5i specific inhibitors of human immunoproteasomes” (J Med Chem, 2014):

How the values were obtained:
[1] = Inhibition of 20s proteasome subunit beta-1c in human Raji cells using BODIPY- epoxomicin by fluorescent densitometry; format: cell-based
[2] = molecular target: T1, Proteasome subunit beta type-9 (Homo sapiens, UniProt P28065); test: Inhibition of proteasome subunit beta-1i in human Raji cells using BODIPY- epoxomicin by fluorescent densitometry; format: cell-based
T1 sequence (P28065 whole entry): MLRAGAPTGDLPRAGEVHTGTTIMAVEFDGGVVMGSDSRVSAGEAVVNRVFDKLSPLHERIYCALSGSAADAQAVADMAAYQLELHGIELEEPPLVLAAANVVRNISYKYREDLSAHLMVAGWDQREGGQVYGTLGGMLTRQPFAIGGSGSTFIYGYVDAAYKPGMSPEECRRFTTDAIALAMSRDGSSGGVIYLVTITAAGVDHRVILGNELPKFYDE

Raji = test: Ratio of IC50 for 20s proteasome subunit beta-1c to IC50 for proteasome subunit beta-1i in human Raji cells; format: cell-based
[3] = molecular target: T2, Proteasome subunit beta type-8 (Homo sapiens, UniProt P28062); test: Inhibition of proteasome subunit beta-5i in human Raji cells using BODIPY-NC005 by fluorescent densitometry; format: cell-based
T2 sequence (P28062 whole entry): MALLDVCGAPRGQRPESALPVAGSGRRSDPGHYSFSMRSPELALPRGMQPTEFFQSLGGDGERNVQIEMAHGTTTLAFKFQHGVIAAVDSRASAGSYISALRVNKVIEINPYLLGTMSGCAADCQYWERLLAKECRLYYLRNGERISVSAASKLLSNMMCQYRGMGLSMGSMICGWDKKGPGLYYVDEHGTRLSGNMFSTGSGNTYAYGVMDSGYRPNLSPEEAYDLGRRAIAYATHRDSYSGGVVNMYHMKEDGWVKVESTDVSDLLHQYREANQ

[4] = Inhibition of 20s proteasome subunit beta-5c in human Raji cells using BODIPY-NC005 by fluorescent densitometry; format: cell-based
[5] = molecular target: T2, Proteasome subunit beta type-8; test: Inhibition of proteasome subunit beta-5i in human RPMI8226 cells using BODIPY-NC005 by fluorescent densitometry; format: cell-based, RPMI-8226
[6] = molecular target: T3, Proteasome subunit beta type-10 (Homo sapiens, UniProt P40306); test: Inhibition of proteasome subunit beta-2i in human RPMI8226 cells using BODIPY-epoxomicin by fluorescent densitometry; format: cell-based, RPMI-8226
T3 sequence (P40306 whole entry): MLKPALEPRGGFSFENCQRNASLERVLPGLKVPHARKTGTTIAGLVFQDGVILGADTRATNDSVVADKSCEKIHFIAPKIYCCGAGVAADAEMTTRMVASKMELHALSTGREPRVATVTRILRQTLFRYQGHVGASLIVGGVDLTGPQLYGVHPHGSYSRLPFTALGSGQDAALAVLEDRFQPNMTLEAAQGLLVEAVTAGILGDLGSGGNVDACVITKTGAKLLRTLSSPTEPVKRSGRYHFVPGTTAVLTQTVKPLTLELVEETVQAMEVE

[7] = Inhibition of 20s proteasome subunit beta-1c in human RPMI8226 cells using BODIPY-NC001 by fluorescent densitometry; format: cell-based; conditions: rpmi-8226
[8] = molecular target: T1, Proteasome subunit beta type-9; test: Inhibition of proteasome subunit beta-1i in human RPMI8226 cells using BODIPY-NC001 by fluorescent densitometry; format: cell-based, RPMI-8226
[9] = molecular target: T3, Proteasome subunit beta type-10; test: Inhibition of proteasome subunit beta-2i in human Raji cells using BODIPY- epoxomicin by fluorescent densitometry; format: cell-based
[10] = Inhibition of 20s proteasome subunit beta-2c in human Raji cells using BODIPY- epoxomicin by fluorescent densitometry; format: cell-based
[11] = Inhibition of 20s proteasome subunit beta-5c in human RPMI8226 cells using BODIPY-NC005 by fluorescent densitometry; format: cell-based; conditions: rpmi-8226
[12] = Inhibition of 20s proteasome subunit beta-2c in human RPMI8226 cells using BODIPY-epoxomicin by fluorescent densitometry; format: cell-based; conditions: rpmi-8226

| SMILES | IC50 [1] | IC50 [2] | Ratio IC50 (Raji) | IC50 [3] | IC50 [4] | other results |
| --- | --- | --- | --- | --- | --- | --- |
| CCCC[C@H](NC(=O)[C@@H]1CCCCN1C(=O)[C@H](C)NC(=O)CN=[N+]=[N-])C(=O)N[C@@H](CC(C)C)C(=O)[C@@]1(C)CO1 | 250 nM | 67 nM | 3.7 |  |  |  |
| COc1ccc(C[C@H](NC(=O)[C@H](C)NC(=O)CN2CCOCC2)C(=O)N[C@H](/C=C/S(C)(=O)=O)CC2CCCCC2)cc1 |  |  |  | 5700 nM | > 100000 nM |  |
| CC1=C(C(=O)N[C@H](C)C(=O)N[C@@H](Cc2c[nH]c3ccccc23)C(=O)N[C@@H](Cc2ccc(-c3ccccc3)cc2)C(=O)[C@@]2(C)CO2)Cc2ccccc21 |  |  |  | 5 nM | 79 nM |  |
| CC1=C(C(=O)N[C@H](C)C(=O)N[C@@H](Cc2c[nH]c3ccccc23)C(=O)N[C@H](/C=C/S(C)(=O)=O)Cc2ccccc2)Cc2ccccc21 | > 100000 nM | > 100000 nM |  | 53 nM | 25000 nM | IC50 [5]: 390 nM; IC50 [6]: > 100000 nM; IC50 [7]: > 100000 nM; IC50 [8]: > 100000 nM; IC50 [9]: > 100000 nM; IC50 [10]: > 100000 nM; IC50 [11]: > 100000 nM; IC50 [12]: > 100000 nM |
| CCCC[C@H](NC(=O)[C@@H]1CC(F)(F)CN1C(=O)[C@H](C)NC(=O)CN=[N+]=[N-])C(=O)N[C@@H](CC(C)C)C(=O)[C@@]1(C)CO1 | 360 nM | 34 nM | 10.5 |  |  |  |
| CCCC[C@H](NC(=O)[C@@H]1CC(F)(F)CN1C(=O)[C@H](C)NC(=O)CN=[N+]=[N-])C(=O)N[C@@H](Cc1ccccc1)C(=O)[C@@]1(C)CO1 | 4800 nM | 42 nM | 114 |  |  | IC50 [9]: > 100000 nM |
| CCCC[C@H](NC(=O)[C@@H]1C[C@@H](O)CN1C(=O)[C@H](C)NC(=O)CN=[N+]=[N-])C(=O)N[C@@H](CC(C)C)C(=O)[C@@]1(C)CO1 | 860 nM | 170 nM | 5 |  |  |  |
| CCCC[C@H](NC(=O)[C@@H]1CCCN1C(=O)[C@H](C)NC(=O)CN=[N+]=[N-])C(=O)N[C@@H](CC1CCCCC1)C(=O)[C@@]1(C)CO1 | 3400 nM | 87 nM | 39 |  |  | IC50 [9]: > 30000 nM |
| COc1ccc(C[C@H](NC(=O)[C@H](C)NC(=O)C2=C(C)c3ccccc3C2)C(=O)N[C@@H](Cc2ccccc2)C(=O)[C@@]2(C)CO2)cc1 |  |  |  | 5 nM | 6 nM |  |
| CCCCCCC(=O)N[C@@H](C)C(=O)N[C@@H](CC(C)C)C(=O)[C@@]1(CO[Si](C)(C)C(C)(C)C)CO1 | 15000 nM | 104 nM | 144 |  |  | IC50 [9]: 25000 nM |
| COc1ccc(C[C@H](NC(=O)[C@H](C)NC(=O)CN2CCOCC2)C(=O)N[C@@H](CC2CCCCC2)C(=O)[C@@]2(C)CO2)cc1 |  | 300 nM |  | 6.6 nM |  | IC50 [5]: 44 nM; IC50 [8]: 370 nM |
| COc1ccc(C[C@H](NC(=O)[C@H](C)NC(=O)C2=C(C)c3ccccc3C2)C(=O)N[C@@H](Cc2ccc(-c3ccccc3)cc2)C(=O)[C@@]2(C)CO2)cc1 |  |  |  | 1.4 nM | 12.6 nM |  |
| CCCC[C@H](NC(=O)[C@@H]1CSCN1C(=O)[C@H](C)NC(=O)CN=[N+]=[N-])C(=O)N[C@@H](CC(C)C)C(=O)[C@@]1(C)CO1 | 240 nM | 68 nM | 6.5 |  |  |  |
| COc1ccc(C[C@H](NC(=O)[C@@H](C)NC(=O)CN2CCOCC2)C(=O)N[C@@H](Cc2ccccc2)C(=O)[C@@]2(C)CO2)cc1 |  |  |  |  | 116 nM |  |
| COc1ccc(C[C@H](NC(=O)[C@H](C)NC(=O)C2=C(C)c3ccccc3C2)C(=O)N[C@@H](CC2CCCCC2)C(=O)[C@@]2(C)CO2)cc1 |  |  |  | 3 nM | 14.5 nM |  |
| COc1ccc(C[C@H](NC(=O)[C@@H](C)NC(=O)C2=C(C)c3ccccc3C2)C(=O)N[C@@H](Cc2ccccc2)C(=O)[C@@]2(C)CO2)cc1 |  |  |  | 3 nM | 157 nM |  |
| COc1ccc(C[C@H](NC(=O)[C@H](C)NC(=O)CN2CCOCC2)C(=O)N[C@@H](Cc2ccc3ccccc3c2)C(=O)[C@@]2(C)CO2)cc1 |  |  |  | 3.1 nM | 97 nM |  |
